Experimental data as given in paper PMC7523345 (Investigational new drugs, 2018).

Test: Phase I dose escalation study: safety, tolerability, DLT and MTD
Type: in vivo

For `Cc1cccc2c1NC(=O)[C@@H](NC(=O)[C@H](CCC(F)(F)F)[C@H](CCC(F)(F)F)C(N)=O)N=C2c1cccc(F)c1` [BMS-986115], the “Abdominal pain (drug related AE, all grades)” value (Arm B BIW 2 mg (N = 2)) was 1 (50) n (%), the “Blood creatinine increased (drug related AE, all grades)” value (Arm B BIW 2 mg (N = 2)) was 0 n (%) and the “Colitis (drug related AE, Grade 3 and 4)” value (Arm B BIW 2 mg (N = 2)) was 0 n (%). The “Cough (drug related AE, Grade 3 and 4)” value (Arm B BIW 2 mg (N = 2)) was 0 n (%), the “Cough (drug related AE, all grades)” value (Arm B BIW 2 mg (N = 2)) was 0 n (%) and the “Decreased Appetite (drug related AE, Grade 3 and 4)” value (Arm B BIW 2 mg (N = 2)) was 0 n (%). The “Decreased Appetite (drug related AE, all grades)” value (Arm B BIW 2 mg (N = 2)) was 0 n (%), the “Dehydration (drug related AE, Grade 3 and 4)” value (Arm B BIW 2 mg (N = 2)) was 0 n (%) and the “Dehydration (drug related AE, all grades)” value (Arm B BIW 2 mg (N = 2)) was 0 n (%). The “Dermatitis acneiform (drug related AE, all grades)” value (Arm B BIW 2 mg (N = 2)) was 0 n (%), the “Diarrhoea (drug related AE, Grade 3 and 4)” value (Arm B BIW 2 mg (N = 2)) was 1 (50) n (%) and the “Diarrhoea (drug related AE, all grades)” value (Arm B BIW 2 mg (N = 2)) was 1 (50) n (%). The “Dry mouth (drug related AE, all grades)” value (Arm B BIW 2 mg (N = 2)) was 0 n (%), the “Dry skin (drug related AE, all grades)” value (Arm B BIW 2 mg (N = 2)) was 0 n (%) and the “Dysgeusia (drug related AE, all grades)” value (Arm B BIW 2 mg (N = 2)) was 0 n (%). For the same compound, the “Dyspepsia (drug related AE, all grades)” value (Arm B BIW 2 mg (N = 2)) was 1 (50) n (%), the “Dysphonia (drug related AE, all grades)” value (Arm B BIW 2 mg (N = 2)) was 0 n (%) and the “Fatigue (drug related AE, Grade 3 and 4)” value (Arm B BIW 2 mg (N = 2)) was 0 n (%). The “Fatigue (drug related AE, all grades)” value (Arm B BIW 2 mg (N = 2)) was 1 (50) n (%), the “Flatulence (drug related AE, all grades)” value (Arm B BIW 2 mg (N = 2)) was 0 n (%) and the “Hypocalcaemia (drug related AE, Grade 3 and 4)” value (Arm B BIW 2 mg (N = 2)) was 0 n (%). The “Hypocalcaemia (drug related AE, all grades)” value (Arm B BIW 2 mg (N = 2)) was 0 n (%), the “Hypokalaemia (drug related AE, Grade 3 and 4)” value (Arm B BIW 2 mg (N = 2)) was 0 n (%) and the “Hypokalaemia (drug related AE, all grades)” value (Arm B BIW 2 mg (N = 2)) was 0 n (%). The “Hyponatraemia (drug related AE, Grade 3 and 4)” value (Arm B BIW 2 mg (N = 2)) was 0 n (%), the “Hyponatraemia (drug related AE, all grades)” value (Arm B BIW 2 mg (N = 2)) was 0 n (%) and the “Hypophosphataemia (drug related AE, Grade 3 and 4)” value (Arm B BIW 2 mg (N = 2)) was 1 (50) n (%). For the same compound, the “Hypophosphataemia (drug related AE, all grades)” value (Arm B BIW 2 mg (N = 2)) was 1 (50) n (%), the “Ileus (drug related AE, Grade 3 and 4)” value (Arm B BIW 2 mg (N = 2)) was 0 n (%) and the “Increased upper airway secretion (drug related AE, all grades)” value (Arm B BIW 2 mg (N = 2)) was 0 n (%). The “Laryngeal pain (drug related AE, all grades)” value (Arm B BIW 2 mg (N = 2)) was 0 n (%), the “Leucocytosis (drug related AE, Grade 3 and 4)” value (Arm B BIW 2 mg (N = 2)) was 0 n (%) and the “Mouth ulceration (drug related AE, all grades)” value (Arm B BIW 2 mg (N = 2)) was 0 n (%). The “Nausea (drug related AE, Grade 3 and 4)” value (Arm B BIW 2 mg (N = 2)) was 0 n (%), the “Nausea (drug related AE, all grades)” value (Arm B BIW 2 mg (N = 2)) was 1 (50) n (%) and the “Pruritus (drug related AE, Grade 3 and 4)” value (Arm B BIW 2 mg (N = 2)) was 0 n (%). The “Pruritus (drug related AE, all grades)” value (Arm B BIW 2 mg (N = 2)) was 0 n (%), the “Pulmonary embolism (drug related AE, Grade 3 and 4)” value (Arm B BIW 2 mg (N = 2)) was 0 n (%) and the “Rash (drug related AE, all grades)” value (Arm B BIW 2 mg (N = 2)) was 0 n (%). The “Rash maculopapular (drug related AE, all grades)” value (Arm B BIW 2 mg (N = 2)) was 0 n (%), the “Sinusitis (drug related AE, all grades)” value (Arm B BIW 2 mg (N = 2)) was 0 n (%) and the “Urticaria (drug related AE, Grade 3 and 4)” value (Arm B BIW 2 mg (N = 2)) was 0 n (%). For the same compound, the “Vision blurred (drug related AE, all grades)” value (Arm B BIW 2 mg (N = 2)) was 0 n (%), the “Vomiting (drug related AE, Grade 3 and 4)” value (Arm B BIW 2 mg (N = 2)) was 0 n (%) and the “Vomiting (drug related AE, all grades)” value (Arm B BIW 2 mg (N = 2)) was 0 n (%). For the same compound, the “Weight decreased (drug related AE, all grades)” value (Arm B BIW 2 mg (N = 2)) was 0 n (%), the “No. of patients with DLTs” value (Arm B BIW 2 mg, 2 DLT evaluable patients) was 0 and the “Abdominal distension (drug related AE, all grades)” value (Arm B BIW 4 mg (N = 2)) was 1 (50) n (%). For the same compound, the “Abdominal pain (drug related AE, Grade 3 and 4)” value (Arm B BIW 4 mg (N = 2)) was 0 n (%), the “Abdominal pain (drug related AE, all grades)” value (Arm B BIW 4 mg (N = 2)) was 0 n (%) and the “Blood creatinine increased (drug related AE, all grades)” value (Arm B BIW 4 mg (N = 2)) was 0 n (%). The “Colitis (drug related AE, Grade 3 and 4)” value (Arm B BIW 4 mg (N = 2)) was 0 n (%), the “Cough (drug related AE, Grade 3 and 4)” value (Arm B BIW 4 mg (N = 2)) was 0 n (%) and the “Cough (drug related AE, all grades)” value (Arm B BIW 4 mg (N = 2)) was 0 n (%). The “Decreased Appetite (drug related AE, Grade 3 and 4)” value (Arm B BIW 4 mg (N = 2)) was 0 n (%), the “Decreased Appetite (drug related AE, all grades)” value (Arm B BIW 4 mg (N = 2)) was 0 n (%) and the “Dehydration (drug related AE, Grade 3 and 4)” value (Arm B BIW 4 mg (N = 2)) was 0 n (%). The “Dehydration (drug related AE, all grades)” value (Arm B BIW 4 mg (N = 2)) was 0 n (%), the “Dermatitis acneiform (drug related AE, all grades)” value (Arm B BIW 4 mg (N = 2)) was 0 n (%) and the “Diarrhoea (drug related AE, Grade 3 and 4)” value (Arm B BIW 4 mg (N = 2)) was 0 n (%). The “Diarrhoea (drug related AE, all grades)” value (Arm B BIW 4 mg (N = 2)) was 0 n (%), the “Dry mouth (drug related AE, all grades)” value (Arm B BIW 4 mg (N = 2)) was 0 n (%) and the “Dry skin (drug related AE, all grades)” value (Arm B BIW 4 mg (N = 2)) was 0 n (%). For the same compound, the “Dysgeusia (drug related AE, all grades)” value (Arm B BIW 4 mg (N = 2)) was 1 (50) n (%), the “Dyspepsia (drug related AE, all grades)” value (Arm B BIW 4 mg (N = 2)) was 0 n (%) and the “Dysphonia (drug related AE, all grades)” value (Arm B BIW 4 mg (N = 2)) was 0 n (%). The “Fatigue (drug related AE, Grade 3 and 4)” value (Arm B BIW 4 mg (N = 2)) was 0 n (%), the “Fatigue (drug related AE, all grades)” value (Arm B BIW 4 mg (N = 2)) was 1 (50) n (%) and the “Flatulence (drug related AE, all grades)” value (Arm B BIW 4 mg (N = 2)) was 1 (50) n (%). The “Hypocalcaemia (drug related AE, Grade 3 and 4)” value (Arm B BIW 4 mg (N = 2)) was 0 n (%) and the “Hypocalcaemia (drug related AE, all grades)” value (Arm B BIW 4 mg (N = 2)) was 0 n (%).
